Measured values reported in the NIST ThermoML archive (doi:10.1016/j.jct.2005.05.007).
Numbers after ± are expanded uncertainties.

How the values were obtained:
[1] = 298.15 K; 101.33 kPa; Liquid; Vibrating tube method
[2] = refractive index (Na D-line) (dimensionless); conditions: 298.15 K; 101.33 kPa; Liquid; Standard Abbe refractometry
[3] = xn = mol fraction of the nth substance listed; conditions: 298.15 K, 101 kPa, Liquid, Vibrating tube method

Structure (SMILES): CCCCCO [pentan-1-ol]
- mass density [1]: 810.8 ± 0.8 kg/m3
- refractive index [2]: 1.4078 ± 0.0008

Structure (SMILES): CCC#N [propanenitrile] + CCCO
- mass density ([3]; x2 = 0.0465): 777.6 ± 0.4 kg/m3
- mass density ([3]; x2 = 0.0955): 778.5 ± 0.4 kg/m3
- mass density ([3]; x2 = 0.143): 779.4 ± 0.4 kg/m3
- mass density ([3]; x2 = 0.1882): 780.3 ± 0.4 kg/m3
- mass density ([3]; x2 = 0.2387): 781.4 ± 0.4 kg/m3
- mass density ([3]; x2 = 0.2837): 782.4 ± 0.4 kg/m3
- mass density ([3]; x2 = 0.3347): 783.6 ± 0.4 kg/m3
- mass density ([3]; x2 = 0.3775): 784.6 ± 0.4 kg/m3
- mass density ([3]; x2 = 0.4341): 786 ± 0.4 kg/m3
- mass density ([3]; x2 = 0.4827): 787.2 ± 0.4 kg/m3
- mass density ([3]; x2 = 0.5841): 789.7 ± 0.4 kg/m3
- mass density ([3]; x2 = 0.6371): 791 ± 0.4 kg/m3
- mass density ([3]; x2 = 0.7389): 793.5 ± 0.4 kg/m3
- mass density ([3]; x2 = 0.7795): 794.5 ± 0.4 kg/m3
- mass density ([3]; x2 = 0.8329): 795.8 ± 0.4 kg/m3
- mass density ([3]; x2 = 0.8919): 797.2 ± 0.4 kg/m3
- mass density ([3]; x2 = 0.9355): 798.2 ± 0.4 kg/m3

Structure (SMILES): CC(C)O [propan-2-ol]
- mass density [1]: 780.9 ± 0.4 kg/m3
- refractive index [2]: 1.3748 ± 0.0008

Structure (SMILES): CCO [ethanol]
- mass density [1]: 785.1 ± 0.4 kg/m3
- refractive index [2]: 1.3593 ± 0.0008

Structure (SMILES): CCC#N [propanenitrile]
- mass density [1]: 776.8 ± 0.4 kg/m3
- refractive index [2]: 1.3633 ± 0.0008

Structure (SMILES): CCC#N [propanenitrile] + CCCCCO
- mass density ([3]; x2 = 0.0353): 778.3 ± 0.4 kg/m3
- mass density ([3]; x2 = 0.0649): 779.6 ± 0.5 kg/m3
- mass density ([3]; x2 = 0.1026): 781.1 ± 0.5 kg/m3
- mass density ([3]; x2 = 0.1379): 782.6 ± 0.5 kg/m3
- mass density ([3]; x2 = 0.1786): 784.2 ± 0.5 kg/m3
- mass density ([3]; x2 = 0.2164): 785.7 ± 0.5 kg/m3
- mass density ([3]; x2 = 0.2613): 787.5 ± 0.5 kg/m3
- mass density ([3]; x2 = 0.3031): 789.1 ± 0.5 kg/m3
- mass density ([3]; x2 = 0.3464): 790.7 ± 0.6 kg/m3
- mass density ([3]; x2 = 0.3917): 792.4 ± 0.6 kg/m3
- mass density ([3]; x2 = 0.4396): 794.1 ± 0.6 kg/m3
- mass density ([3]; x2 = 0.489): 795.8 ± 0.6 kg/m3
- mass density ([3]; x2 = 0.5444): 797.7 ± 0.6 kg/m3
- mass density ([3]; x2 = 0.6012): 799.5 ± 0.7 kg/m3
- mass density ([3]; x2 = 0.6547): 801.2 ± 0.7 kg/m3
- mass density ([3]; x2 = 0.7186): 803.2 ± 0.7 kg/m3
- mass density ([3]; x2 = 0.7788): 804.9 ± 0.7 kg/m3
- mass density ([3]; x2 = 0.8488): 806.9 ± 0.8 kg/m3
- mass density ([3]; x2 = 0.9162): 808.7 ± 0.8 kg/m3

Structure (SMILES): CCC#N [propanenitrile] + CCCCO
- mass density ([3]; x2 = 0.0391): 778 ± 0.4 kg/m3
- mass density ([3]; x2 = 0.1177): 780.4 ± 0.4 kg/m3
- mass density ([3]; x2 = 0.1625): 781.8 ± 0.4 kg/m3
- mass density ([3]; x2 = 0.1984): 782.9 ± 0.4 kg/m3
- mass density ([3]; x2 = 0.2481): 784.4 ± 0.4 kg/m3
- mass density ([3]; x2 = 0.3398): 787.4 ± 0.4 kg/m3
- mass density ([3]; x2 = 0.385): 788.7 ± 0.4 kg/m3
- mass density ([3]; x2 = 0.4364): 790.2 ± 0.4 kg/m3
- mass density ([3]; x2 = 0.4813): 791.6 ± 0.4 kg/m3
- mass density ([3]; x2 = 0.539): 793.3 ± 0.4 kg/m3
- mass density ([3]; x2 = 0.5821): 794.6 ± 0.4 kg/m3
- mass density ([3]; x2 = 0.6363): 796.2 ± 0.4 kg/m3
- mass density ([3]; x2 = 0.7036): 798.1 ± 0.4 kg/m3
- mass density ([3]; x2 = 0.7441): 799.2 ± 0.4 kg/m3
- mass density ([3]; x2 = 0.8103): 801 ± 0.4 kg/m3
- mass density ([3]; x2 = 0.8795): 802.8 ± 0.4 kg/m3
- mass density ([3]; x2 = 0.9334): 804.1 ± 0.4 kg/m3

Structure (SMILES): CCC#N [propanenitrile] + CO
- mass density ([3]; x2 = 0.0822): 777.3 ± 0.4 kg/m3
- mass density ([3]; x2 = 0.1672): 777.9 ± 0.4 kg/m3
- mass density ([3]; x2 = 0.2338): 778.4 ± 0.4 kg/m3
- mass density ([3]; x2 = 0.2992): 779 ± 0.4 kg/m3
- mass density ([3]; x2 = 0.3634): 779.7 ± 0.4 kg/m3
- mass density ([3]; x2 = 0.4258): 780.3 ± 0.4 kg/m3
- mass density ([3]; x2 = 0.4879): 781 ± 0.4 kg/m3
- mass density ([3]; x2 = 0.5403): 781.6 ± 0.4 kg/m3
- mass density ([3]; x2 = 0.5844): 782.1 ± 0.4 kg/m3
- mass density ([3]; x2 = 0.6226): 782.6 ± 0.4 kg/m3
- mass density ([3]; x2 = 0.6752): 783.3 ± 0.4 kg/m3
- mass density ([3]; x2 = 0.7183): 783.8 ± 0.4 kg/m3
- mass density ([3]; x2 = 0.763): 784.4 ± 0.4 kg/m3
- mass density ([3]; x2 = 0.7996): 784.8 ± 0.4 kg/m3
- mass density ([3]; x2 = 0.8366): 785.3 ± 0.4 kg/m3
- mass density ([3]; x2 = 0.8743): 785.8 ± 0.4 kg/m3
- mass density ([3]; x2 = 0.9088): 786.1 ± 0.4 kg/m3
- mass density ([3]; x2 = 0.9384): 786.3 ± 0.4 kg/m3
- mass density ([3]; x2 = 0.9696): 786.5 ± 0.4 kg/m3

Structure (SMILES): CCCO [propan-1-ol]
- mass density [1]: 799.6 ± 0.4 kg/m3
- refractive index [2]: 1.3834 ± 0.0008

Structure (SMILES): CCC#N [propanenitrile] + CC(C)O
- mass density ([3]; x2 = 0.0579): 776.1 ± 0.4 kg/m3
- mass density ([3]; x2 = 0.0955): 775.8 ± 0.4 kg/m3
- mass density ([3]; x2 = 0.1396): 775.5 ± 0.4 kg/m3
- mass density ([3]; x2 = 0.183): 775.4 ± 0.4 kg/m3
- mass density ([3]; x2 = 0.2321): 775.3 ± 0.4 kg/m3
- mass density ([3]; x2 = 0.2775): 775.4 ± 0.4 kg/m3
- mass density ([3]; x2 = 0.3274): 775.5 ± 0.4 kg/m3
- mass density ([3]; x2 = 0.3784): 775.6 ± 0.4 kg/m3
- mass density ([3]; x2 = 0.4249): 775.8 ± 0.4 kg/m3
- mass density ([3]; x2 = 0.4768): 776 ± 0.4 kg/m3
- mass density ([3]; x2 = 0.5385): 776.4 ± 0.4 kg/m3
- mass density ([3]; x2 = 0.5752): 776.6 ± 0.4 kg/m3
- mass density ([3]; x2 = 0.6307): 777 ± 0.4 kg/m3
- mass density ([3]; x2 = 0.6763): 777.4 ± 0.4 kg/m3
- mass density ([3]; x2 = 0.7286): 777.9 ± 0.4 kg/m3
- mass density ([3]; x2 = 0.7788): 778.4 ± 0.4 kg/m3
- mass density ([3]; x2 = 0.8384): 779.1 ± 0.4 kg/m3
- mass density ([3]; x2 = 0.8929): 779.7 ± 0.4 kg/m3
- mass density ([3]; x2 = 0.9416): 780.2 ± 0.4 kg/m3

Structure (SMILES): CCCCO [butan-1-ol]
- mass density [1]: 805.8 ± 0.8 kg/m3
- refractive index [2]: 1.397 ± 0.0008

Structure (SMILES): CO [methanol]
- mass density [1]: 786.6 ± 0.4 kg/m3
- refractive index [2]: 1.3265 ± 0.0008

Structure (SMILES): CCC#N [propanenitrile] + CCO
- mass density ([3]; x2 = 0.0627): 776.8 ± 0.4 kg/m3
- mass density ([3]; x2 = 0.129): 777 ± 0.4 kg/m3
- mass density ([3]; x2 = 0.1754): 777.2 ± 0.4 kg/m3
- mass density ([3]; x2 = 0.2486): 777.6 ± 0.4 kg/m3
- mass density ([3]; x2 = 0.2872): 777.9 ± 0.4 kg/m3
- mass density ([3]; x2 = 0.3419): 778.4 ± 0.4 kg/m3
- mass density ([3]; x2 = 0.3978): 778.9 ± 0.4 kg/m3
- mass density ([3]; x2 = 0.4563): 779.5 ± 0.4 kg/m3
- mass density ([3]; x2 = 0.5001): 780 ± 0.4 kg/m3
- mass density ([3]; x2 = 0.5577): 780.6 ± 0.4 kg/m3
- mass density ([3]; x2 = 0.6025): 781.1 ± 0.4 kg/m3
- mass density ([3]; x2 = 0.6433): 781.6 ± 0.4 kg/m3
- mass density ([3]; x2 = 0.6925): 782.2 ± 0.4 kg/m3
- mass density ([3]; x2 = 0.7416): 782.7 ± 0.4 kg/m3
- mass density ([3]; x2 = 0.7823): 783.2 ± 0.4 kg/m3
- mass density ([3]; x2 = 0.8218): 783.6 ± 0.4 kg/m3
- mass density ([3]; x2 = 0.8737): 784.2 ± 0.4 kg/m3
- mass density ([3]; x2 = 0.9146): 784.6 ± 0.4 kg/m3
- mass density ([3]; x2 = 0.9565): 784.9 ± 0.4 kg/m3
